# Data: patent USRE48461E1, “Modulation of androgen receptor expression” (Ionis Pharmaceuticals, Inc., priority 2012, dated 2021)
# Legend:
# Assay type in all cases: cell-based, human
# TMPRSS2 mRNA [1] = assay: TMPRSS2 mRNA levels in LMR20 cells; conditions: with or without DHT/R1881
# Protocol: LMR20 cells were plated at 1,500 cells per well in phenol red-free medium with CSS.
# C4-2B cells = assay: C4-2B cell proliferation, ASO in combination with MDV3100 (Example 21); conditions: for Proliferation (% untreated control) in C4-2B without MDV-3100: 5 days
# Protocol: C4-2B cells were plated at 1,000 cells per well. […] ISIS 549148 was included as a negative control. […] After a treatment period of 5 days, the proliferative capacity of the cancer cells was measured with CellTiter 96® AQueous One Solution Cell Proliferation kit (Promega), following the manufacturer's instructions. […]
# PSA mRNA = assay: PSA expression in LNCaP cells (complete, CSS+DHT medium); conditions: for Percent inhibition of PSA expression in LNCaP cells cultured in CSS + DHT medium: CSS + DHT (1 nM) medium, 48 hrs; for Percent inhibition of PSA expression in LNCaP cells cultured in complete medium: 48 hours
# Protocol: (§1) Cells were plated at 1,000 cells per well. […] ISIS 549148 was included as a negative control. […] After an incubation period of 48 hours, RNA levels of AR, PSA and TMPRSS2 were measured.
# (§2) Cells were plated at 2,000 cells per well and cultured in phenol red-free RPMI supplemented with 5% charcoal stripped serum (Gibco) media for 16 hours. […] ISIS 549148 was included as a negative control. […] After an incubation period of 4 hrs, DHT was added to the medium to a final concentration of 1 nM as indicated. RNAs were collected 48 hrs later and levels of AR, PSA and TMPRSS2 were measured. In the absence of DHT, AR expression in LNCaP cells was 95%, PSA expression was 7% and TMPRSS2 expression was 24% compared to the untreated control.
# TMPRSS2 mRNA [2] = assay: TMPRSS2 expression in LNCaP cells (complete, CSS+DHT medium); conditions: for Percent inhibition of TMPRSS2 expression in LNCaP cells cultured in CSS + DHT medium: CSS + DHT (1 nM) medium, 48 hrs; for Percent inhibition of TMPRSS2 expression in LNCaP cells cultured in complete medium: 48 hours
# Protocol: as §1, §2
# LNCaP cells = assay: LNCaP cell proliferation (complete or CSS+DHT medium); conditions: 5 days; for Proliferation (% untreated control) in LNCaP cells cultured in CSS + DHT medium: CSS + 1 nM DHT medium
# Protocol: After a treatment period of 5 days in complete medium or CSS+1 nM DHT medium, the proliferative capacity of the cancer cells was measured with using CellTiter 96® AQueous One Solution or CellTiter-Glo® solution Cell Proliferation kit (Promega), following the manufacturer's instructions. […] Treatment with ISIS oligonucleotides in CSS+DHT medium reduced the proliferative capacity to a greater extent than treatment with MVD-3100. The proliferative capacity of cells cultured in CSS medium without DHT is 17% of untreated control levels.
# AR mRNA = assay: AR RNA expression in C4-2 cells (complete, CSS+DHT medium); conditions: 48 hrs; for Percent expression of AR: C4-2 cells, CSS + DHT medium
# Protocol: Cells were plated at 1,000 cells per well. […] After an incubation period of 48 hrs, RNA levels of AR, PSA and TMPRSS2 were measured.
# Cells were plated at 2,000 cells per well and cultured in CSS media with 1 nM DHT. […] After an incubation period of 48 hrs, RNA levels of AR, PSA and TMPRSS2 were measured.
# full length AR mRNA = assay: Full-length AR RNA in 22RV1 cells (complete, CSS+DHT medium); conditions: RNAiMax, 48 hrs
# Protocol: Cells were plated at 1,000 cells per well. […] After an incubation period of 48 hrs, RNA levels of full length AR, the V7 variant, PSA and TMPRSS2 were measured.
# After an incubation period of 48 hrs, RNA levels of full length AR, the V7 variant, PSA and TMPRSS2 were measured.
# Cells were plated at 2,000 cells per well and cultured in CSS media for 16 hours. […] After 4 hrs, 1 nM DHT was added. […] After an incubation period of 48 hrs, RNA levels of AR, AR V7 variant, PSA and TMPRSS2 were measured.
sequence,measurement,setting,value
"TGATTTAATGGTTGCA [ISIS 569236] (cEt/MOE gapmer chemistry, further chemistry not given here) [targets intron 1]",TMPRSS2 mRNA levels in LMR20 cells,TMPRSS2 mRNA [1],reduced PSA levels and TMPRSS2 more extensively than the LNA gapmer ISIS 554221 or MDV3100
same,Proliferation (% untreated control) in C4-2B with 0.08 μM MDV-3100,C4-2B cells; ASO dose 0.04 μM + 0.08 μM MDV-3100,79 % untreated control
same,Proliferation (% untreated control) in C4-2B with 0.4 μM MDV-3100,C4-2B cells; ASO dose 0.04 μM + 0.4 μM MDV-3100,63 % untreated control
same,Proliferation (% untreated control) in C4-2B with 2.0 μM MDV-3100,C4-2B cells; ASO dose 0.04 μM + 2.0 μM MDV-3100,45 % untreated control
same,Proliferation (% untreated control) in C4-2B with […] MDV-3100,C4-2B cells; ASO dose 0.04 μM + […] MDV-3100,74 % untreated control
same,Proliferation (% untreated control) in C4-2B without MDV-3100,C4-2B cells; ASO dose 0.04 μM,72 % untreated control
same,Proliferation (% untreated control) in C4-2B with 0.08 μM MDV-3100,C4-2B cells; ASO dose 0.08 μM + 0.08 μM MDV-3100,89 % untreated control
same,Proliferation (% untreated control) in C4-2B with 0.4 μM MDV-3100,C4-2B cells; ASO dose 0.08 μM + 0.4 μM MDV-3100,90 % untreated control
same,Proliferation (% untreated control) in C4-2B with 2.0 μM MDV-3100,C4-2B cells; ASO dose 0.08 μM + 2.0 μM MDV-3100,44 % untreated control
same,Proliferation (% untreated control) in C4-2B with […] MDV-3100,C4-2B cells; ASO dose 0.08 μM + […] MDV-3100,107 % untreated control
same,Proliferation (% untreated control) in C4-2B without MDV-3100,C4-2B cells; ASO dose 0.08 μM,100 % untreated control
same,Proliferation (% untreated control) in C4-2B with 0.08 μM MDV-3100,C4-2B cells; ASO dose 0.2 μM + 0.08 μM MDV-3100,51 % untreated control
same,Proliferation (% untreated control) in C4-2B with 0.4 μM MDV-3100,C4-2B cells; ASO dose 0.2 μM + 0.4 μM MDV-3100,48 % untreated control
same,Proliferation (% untreated control) in C4-2B with 2.0 μM MDV-3100,C4-2B cells; ASO dose 0.2 μM + 2.0 μM MDV-3100,48 % untreated control
same,Proliferation (% untreated control) in C4-2B with […] MDV-3100,C4-2B cells; ASO dose 0.2 μM + […] MDV-3100,65 % untreated control
same,Proliferation (% untreated control) in C4-2B without MDV-3100,C4-2B cells; ASO dose 0.2 μM,63 % untreated control
same,Proliferation (% untreated control) in C4-2B with 0.08 μM MDV-3100,C4-2B cells; ASO dose 1.0 μM + 0.08 μM MDV-3100,43 % untreated control
same,Proliferation (% untreated control) in C4-2B with 0.4 μM MDV-3100,C4-2B cells; ASO dose 1.0 μM + 0.4 μM MDV-3100,39 % untreated control
same,Proliferation (% untreated control) in C4-2B with 2.0 μM MDV-3100,C4-2B cells; ASO dose 1.0 μM + 2.0 μM MDV-3100,46 % untreated control
same,Proliferation (% untreated control) in C4-2B with […] MDV-3100,C4-2B cells; ASO dose 1.0 μM + […] MDV-3100,55 % untreated control
same,Proliferation (% untreated control) in C4-2B without MDV-3100,C4-2B cells; ASO dose 1.0 μM,51 % untreated control
same,synergy with MDV3100,C4-2B cells; C4-2B cells,synergistic with MDV3100
same,"cell proliferation inhibited, combination","C4-2B cells; C4-2B cells, 0.2 μM ASO in combination with 0.08 μM MDV3100",52%
same,"inhibited cell proliferation, ASO alone","C4-2B cells; C4-2B cells, ASO alone at 0.2 μM",37%
same,Percent inhibition of PSA expression in LNCaP cells cultured in CSS + DHT medium,PSA mRNA; 0.04 μM,4%
same,Percent inhibition of PSA expression in LNCaP cells cultured in CSS + DHT medium,PSA mRNA; 0.2 μM,11%
same,Percent inhibition of PSA expression in LNCaP cells cultured in CSS + DHT medium,PSA mRNA; 1 μM,45%
same,Percent inhibition of PSA expression in LNCaP cells cultured in CSS + DHT medium,PSA mRNA; 5.0 μM,59%
same,Percent inhibition of PSA expression in LNCaP cells cultured in complete medium,PSA mRNA; 0.04 μM,0%
same,Percent inhibition of PSA expression in LNCaP cells cultured in complete medium,PSA mRNA; 0.2 μM,19%
same,Percent inhibition of PSA expression in LNCaP cells cultured in complete medium,PSA mRNA; 1 μM,63%
same,Percent inhibition of PSA expression in LNCaP cells cultured in complete medium,PSA mRNA; 5.0 μM,81%
same,Percent inhibition of TMPRSS2 expression in LNCaP cells cultured in CSS + DHT medium,TMPRSS2 mRNA [2]; 0.04 μM,6%
same,Percent inhibition of TMPRSS2 expression in LNCaP cells cultured in CSS + DHT medium,TMPRSS2 mRNA [2]; 0.2 μM,8%
same,Percent inhibition of TMPRSS2 expression in LNCaP cells cultured in CSS + DHT medium,TMPRSS2 mRNA [2]; 1 μM,40%
same,Percent inhibition of TMPRSS2 expression in LNCaP cells cultured in CSS + DHT medium,TMPRSS2 mRNA [2]; 5.0 μM,50%
same,Percent inhibition of TMPRSS2 expression in LNCaP cells cultured in complete medium,TMPRSS2 mRNA [2]; 0.04 μM,0%
same,Percent inhibition of TMPRSS2 expression in LNCaP cells cultured in complete medium,TMPRSS2 mRNA [2]; 0.2 μM,5%
same,Percent inhibition of TMPRSS2 expression in LNCaP cells cultured in complete medium,TMPRSS2 mRNA [2]; 1 μM,40%
same,Percent inhibition of TMPRSS2 expression in LNCaP cells cultured in complete medium,TMPRSS2 mRNA [2]; 5.0 μM,48%
same,Proliferation (% untreated control) in LNCaP cells cultured in CSS + DHT medium,LNCaP cells; 0.04 μM,95 % untreated control
same,Proliferation (% untreated control) in LNCaP cells cultured in CSS + DHT medium,LNCaP cells; 0.2 μM,99 % untreated control
same,Proliferation (% untreated control) in LNCaP cells cultured in CSS + DHT medium,LNCaP cells; 1 μM,54 % untreated control
same,Proliferation (% untreated control) in LNCaP cells cultured in CSS + DHT medium,LNCaP cells; 5.0 μM,17 % untreated control
same,proliferation of LNCaP cells,LNCaP cells; complete medium or CSS+1 nM DHT,reduced proliferation of the cells in a dose dependent compared to the control
same,Proliferation (% untreated control) in LNCaP cells cultured in complete medium,LNCaP cells; 0.04 μM,100 % untreated control
same,Proliferation (% untreated control) in LNCaP cells cultured in complete medium,LNCaP cells; 0.2 μM,85 % untreated control
same,Proliferation (% untreated control) in LNCaP cells cultured in complete medium,LNCaP cells; 1 μM,68 % untreated control
same,Proliferation (% untreated control) in LNCaP cells cultured in complete medium,LNCaP cells; 5.0 μM,54 % untreated control
same,Percent expression of AR,AR mRNA; 0.04 μM,89%
same,Percent expression of AR,AR mRNA; 0.2 μM,82%
same,Percent expression of AR,AR mRNA; 1 μM,52%
same,Percent expression of AR,AR mRNA; 5.0 μM,23%
same,Percent expression of AR in C4-2 cells cultured in complete medium,AR mRNA; 0.04 μM,72%
same,Percent expression of AR in C4-2 cells cultured in complete medium,AR mRNA; 0.2 μM,27%
same,Percent expression of AR in C4-2 cells cultured in complete medium,AR mRNA; 1 μM,11%
same,Percent expression of AR in C4-2 cells cultured in complete medium,AR mRNA; 5.0 μM,9%
same,Percent inhibition of full-length AR,"full length AR mRNA; CSS + DHT medium, 1.34 nM",59%
same,Percent inhibition of full-length AR,"full length AR mRNA; CSS + DHT medium, 4.0 nM",89%
same,Percent inhibition of full-length AR,"full length AR mRNA; CSS + DHT medium, 13.4 nM",97%
same,Percent inhibition of full-length AR,"full length AR mRNA; complete medium, 1.34 nM",17%
same,Percent inhibition of full-length AR,"full length AR mRNA; complete medium, 4.0 nM",15%
same,Percent inhibition of full-length AR,"full length AR mRNA; complete medium, 13.4 nM",37%
same,Percent inhibition of full-length AR,"full length AR mRNA; complete medium, 40 nM",71%
